Patent US20190209712A1, “HUMANIZED MURINE MODEL OF CHRONIC HEPATITIS B CONSTRUCTED USING STEM CELLS AND METHOD OF USING SAME” (Zhejiang University, priority 2017, published 2019)

Tested on: HBV
Assay: Efficacy of and drug resistance to antiviral drugs in humanized rat model of chronic hepatitis B (HBV viral load)
Assay type: in vivo
Conditions: humanized rats with chronic hepatitis B; therapeutic dose; 1, 2, 4, 8, 12 and 24 weeks after treatment; FIG. 2
Procedure: The Study of Efficacy of and Drug Resistance to the Antiviral Drugs Using a Humanized Rat Model of Chronic Hepatitis B • 1. 200 humanized rats with chronic hepatitis B were randomly divided into four groups. There were no significant differences in age, gender, weight and baseline of HBV viral load among the groups. • 2. Therapeutic dose of commonly used antiviral drugs lamivudine, telbivudine, entecavir and tenofovir were administered to each of the four groups, respectively. • 3. At 1 week, 2 weeks, 4 weeks, 8 weeks, 12 weeks and 24 weeks after the treatment, the viral load of HBV in each group of rats was detected, respectively. • 4. Curves were plotted based on the viral load in each group at each time point. The difference between the groups was compared to evaluate the efficacy of and drug resistance to existing commonly used antiviral drugs.

SMILES: C=C1[C@H](CO)[C@@H](O)C[C@@H]1n1cnc2c(=O)[nH]c(N)nc21 [entecavir]
- drop of the viral titer curves (viral load of HBV): superior to those of the telbivudine group and the lamivudine group

SMILES: C[C@H](Cn1cnc2c(N)ncnc21)OCP(=O)(O)O [tenofovir]
- drop of the viral titer curves (viral load of HBV): superior to those of the telbivudine group and the lamivudine group
